In patent US20260335332A1, “STABLE MONOHYDRATE FORM OF AVIBACTAM SODIUM SALT AND PREPARATION METHOD THEREFOR” (KYONGBO PHARM. CO., LTD., priority 2022, published 2026):
Like-named read-outs stand apart in the source and are kept apart here.

Legend:
[1] = described in WO2011/042560 A1; cited from earlier work
TGA pattern measurement = assay type: physicochemical; conditions: 3 to 5 mg, 30 to 500° C. at 10 K/min; theoretical water content of the monohydrate 5.90%
Description: The TGA pattern was measured while heating 3 to 5 mg of the novel monohydrate form “a” of avibactam sodium salt prepared in Example 1 from 30 to 500° C. at a rate of 10 K/min. […] In addition, decomposition exotherm accompanied by weight loss at 200 to 220° C. was confirmed and the results are shown in FIG. 5.

[2] = Accelerated stability test on moisture content changes (40° C., 75% relative humidity), Karl-Fischer; assay type: physicochemical; conditions: glass vial, 6 weeks, Karl-Fischer moisture meter
Description: The novel monohydrate form “a” of avibactam sodium salt prepared in Example 1 was packaged in a glass vial and stored at 40° C. and 75% relative humidity for 6 weeks and the change in moisture content thereof was measured by a Karl-Fischer moisture meter at weekly intervals for about 6 weeks.

[3] = described in WO2011/042560 A1; cited from earlier work; remark: listed apart in the source
DSC pattern measurement = assay type: physicochemical; conditions: 3 to 5 mg, 25 to 500° C. at 10 K/min
Description: The DSC pattern was measured while heating 3 to 5 mg of the novel monohydrate form “a” of avibactam sodium salt prepared in Example 1 from 25 to 500° C. at a rate of 10 K/min. As a result, the exothermic decomposition peak was confirmed at 227.3° C. […] It was confirmed therefrom that it had different physicochemical properties from the monohydrate form “A”, and the results are shown in FIG. 6.

[4] = Comparative accelerated stability test on purity/appearance changes (40° C., 75% relative humidity), HPLC; assay type: physicochemical; conditions: 6 weeks
Description: The novel monohydrate form “a” of avibactam sodium salt prepared in Example 1, the monohydrate form “A” and the anhydrous form “B” were each packaged in glass vials and stored at 40° C. and 75% relative humidity for 6 weeks and the purity changes thereof were measured by HPLC at weekly intervals.

| Structure (SMILES) | stability during long storage and at higher temperature [1] | weight loss at 100 to 140° C. (TGA) (TGA pattern measurement) | maintenance of monohydrate form (change in moisture content) [2] | exothermic decomposition peak (DSC) [3] | exothermic decomposition peak (DSC) (DSC pattern measurement) | pharmaceutical stability compared with anhydrous form “B” ([4]; accelerated stability, vs anhydrous form “B”) | stability (purity changes) compared with monohydrate form “A” ([4]; glass vials, HPLC at weekly intervals, vs monohydrate form “A”) |
| --- | --- | --- | --- | --- | --- | --- | --- |
| NC(=O)[C@@H]1CC[C@@H]2CN1C(=O)N2OS(=O)(=O)O [form “E”, (1R,2S,5R)-7-oxo-6-sulfooxy-1,6-diazabicyclo[3.2.1]octane-2-carboxamide sodium] | tends to lose water and hydrolyze during long storage and at higher temperature |  |  |  |  |  |  |
| NC(=O)[C@@H]1CC[C@@H]2CN1C(=O)N2OS(=O)(=O)O [form “a”, (1R,2S,5R)-7-oxo-6-sulfooxy-1,6-diazabicyclo[3.2.1]octane-2-carboxamide sodium] |  | 5.57% | maintained the monohydrate form thereof | 238.9 °C | 227.3 °C | pharmaceutically more stable than the form “B” | a more stable form than the monohydrate form “A” |
